Laboratory results reported in US20160257651A1, “NOVEL COMPOUND WITH ANTIBACTERIAL ACTIVITY” (priority 2013, published 2016).
In brackets after ≈: the same amount, converted by molar mass. Where two headings read alike, the source gives them in different places.

Experiments:
E. faecalis NCTC12203 = assay: MIC against Enterococcus bacteria; assay type: cell-based; settings: NCTC 12203 / VRE
Description: (§1) Antibacterial activities of the compound J-131CP against Enterococcus bacteria (Enterococcus faecium and Enterococcus faecalis) were examined by the following methods.
(§2) The compound J-131CP and quinolones were prepared in the same manner as that of Test Example 1-1.
(§3) Cell suspensions were prepared in the same manner as that of Test Example 1-1 described in the section of measurement of MIC in Test Example 1-1, except that the Enterococcus bacterium strains mentioned in Table 8 were used instead of Staphylococcus aureus, and MICs of the compound J-131CP and quinolones as control were determined for the strains in the same manner as that of Test Example 1-1 described in the section of measurement of MIC in Test Example 1-1. In Table 8, the amino acid substitution mutations in QRDR of the strains are underlined.

E. faecalis 36-15747 = assay: MIC against Enterococcus bacteria; assay type: cell-based; settings: 3615747, ParC 80Ile
Description: as §1, §2, §3

E. faecium NCTC12204 = assay: MIC against Enterococcus bacteria; assay type: cell-based; settings: NCTC 12204 / VRE
Description: as §1, §2, §3

S. pneumoniae JHSP11 = assay: MIC against pneumococcus, CAMHB with 5 mass % LHB; assay type: cell-based; settings: Streptococcus pneumoniae
From the text: (§4) Antibacterial activity of the compound J-131CP against pneumococcus (Streptococcus pneumoniae) was examined by the following method. The S. pneumoniae strains used for this test belong to any one of the categories of penicillin-susceptible pneumococcus (penicillin-susceptible Streptococcus pneumoniae, PSSP), penicillin-intermediate pneumococcus (penicillin-intermediate Streptococcus pneumoniae, PISP), and penicillin-resistant pneumococcus (penicillin-resistant Streptococcus pneumoniae, PRSP).
(§5) The compound J-131CP and quinolones were prepared in the same manner as that of Test Example 1-1, except that CAMHB containing 5 mass % of lysed horse blood (LHB) was used for the dilution instead of CAMHB. The lysed horse blood was prepared by adding sterilized water to horse sterile defibered blood (produced by Nippon Bio-Supp. Center) at a ratio of 1:1, subjecting the mixture to freezing and thawing 5 times, then centrifuging the mixture twice at 10,000 rpm for 20 minutes, and filtering the supernatant through a filter.
(§6) The S. pneumoniae strains mentioned in Table 11 were each cultured overnight at 37° C. on a blood agar medium as stationary culture. The blood agar medium was prepared by adding 5 mass % ovine sterile defibered blood (produced by Nippon Bio-Supp. Center) to a heart infusion agar medium (produced by EIKEN CHEMICAL). Each S. pneumoniae strain cultured overnight at 37° C. as stationary culture was further subcultured overnight at 37° C. on fresh blood agar medium as stationary culture. After completion of the culture, cells of each pneumococcus strain were collected with a swab, and suspended in physiological saline, and the suspension was adjusted with physiological saline to show absorbance of 0.08 to 0.13 at 625 nm as measured with an absorbance meter (produced by Amersham), and further diluted 200 times with CAMHB containing 5 mass % LHB.
(§7) CAMHB containing the compound J-131CP at each concentration or each quinolone at each concentration, and 5 mass % LHB was added to each well of a 96-well plate in a volume of 50 μL/well, each cell suspension diluted 200 times was added to the well in a volume of 50 μL/well, and stationary culture was carried out overnight at 37° C.
(§8) After completion of the culture, whether the bacterium proliferated or not was determined on the basis of visually observed turbidity of the culture in the well, and MIC values (mg/L) of the compound J-131CP and the quinolones for the strains were determined. In Table 11, the amino acid substitution mutations in QRDR of the strains are underlined.

S. pneumoniae BCLSP16 = assay: MIC against pneumococcus, CAMHB with 5 mass % LHB; assay type: cell-based; settings: Streptococcus pneumoniae
From the text: as §4, §5, §6, §7, §8

S. pneumoniae KBSP04 = assay: MIC against pneumococcus, CAMHB with 5 mass % LHB; assay type: cell-based; settings: Streptococcus pneumoniae
From the text: as §4, §5, §6, §7, §8

S. pneumoniae KBSP11 = assay: MIC against pneumococcus, CAMHB with 5 mass % LHB; assay type: cell-based, Streptococcus pneumoniae; settings: Streptococcus pneumoniae
Description: as §4, with “The” for “Antibacterial activity of the compound J-131CP against pneumococcus (Streptococcus pneumoniae) was examined by the following method. The”
(§9) The lysed horse blood was prepared by adding sterilized water to horse sterile defibered blood (produced by Nippon Bio-Supp. Center) at a ratio of 1:1, subjecting the mixture to freezing and thawing 5 times, then centrifuging the mixture twice at 10,000 rpm for 20 minutes, and filtering the supernatant through a filter.
as §6
(§10) In Table 11, the amino acid substitution mutations in QRDR of the strains are underlined.

S. pneumoniae BCLSP37 = assay: MIC against pneumococcus, CAMHB with 5 mass % LHB; assay type: cell-based, Streptococcus pneumoniae; settings: Streptococcus pneumoniae, BCLSP37, S. pneumoniae BCLSP37, PSSP, quinolone-resistant; ParC 79Phe, GyrA 85Lys; read-out: MIC
Description: as §4, with “The” for “Antibacterial activity of the compound J-131CP against pneumococcus (Streptococcus pneumoniae) was examined by the following method. The”
as §9, §6, §10

E. faecalis NCTC12201 = assay: MIC against Enterococcus bacteria; assay type: cell-based; settings: Enterococcus faecalis, NCTC 12201 / VRE, quinolone-susceptible
Description: as §1, §2, §3

E. faecium RPR10 = assay: MIC against Enterococcus bacteria; assay type: cell-based
Description: as §1, §2, §3

[1] = test system: S. aureus FDA209P (ATCC 6538P); assay: microbe, parasite or virus in culture; assay type: cell-based, Staphylococcus aureus; settings: Staphylococcus aureus, ATCC 6538P / FDA209P / MSSA, quinolone-susceptible MSSA, ParC 80S, GyrA 84S, read-out: MIC
Description: (§11) Then, the cell suspension was diluted 500 times with CAMHB mentioned above.

S. aureus Mu50 = assay: microbe, parasite or virus in culture; assay type: cell-based, Staphylococcus aureus; settings: for MIC ratio (Mu50 MIC/FDA209P MIC): MIC for S. aureus Mu50 / MIC for S. aureus FDA209P; for MIC: S. aureus Mu50, quinolone-resistant MRSA, ParC S80F, GyrA S84L
Description: as §11

[2] = test system: S. aureus MR5867 one-step mutant; assay: MIC against stepwise QRDR mutants; assay type: cell-based; settings: Staphylococcus aureus
Description: (§12) The strains used for this test example are available from the inventors of the present invention.
as §11

[3] = test system: S. aureus MS5952 one-step mutant; assay: MIC against stepwise QRDR mutants; assay type: cell-based; settings: Staphylococcus aureus
Description: as §12, §11

S. aureus Mu50 NR1-1 = assay: microbe, parasite or virus in culture; assay type: cell-based; settings: Staphylococcus aureus, MU50NR11
Description: as §11

[4] = E. faecalis NCTC12203, VRE, read-out: MIC
[5] = E. faecium NCTC12204, VRE, read-out: MIC
[6] = S. pneumoniae KBSP04, PISP, read-out: MIC
[7] = S. pneumoniae KBSP11, PRSP, quinolone-susceptible, read-out: MIC
[8] = E. faecium RPR10, read-out: MIC

SMILES	MIC (E. faecalis NCTC12203; [4])	MIC (E. faecalis 36-15747)	MIC (E. faecium NCTC12204; [5])	MIC (S. pneumoniae JHSP11)	MIC (S. pneumoniae KBSP04; [6])	MIC (S. pneumoniae KBSP11; [7])	MIC (S. pneumoniae BCLSP37)	MIC [1]	MIC ratio (Mu50 MIC/FDA209P MIC) (S. aureus Mu50)	MIC (S. aureus Mu50; Staphylococcus aureus, MRSA)	MIC (S. pneumoniae BCLSP16; BCLSP16)	MIC (S. pneumoniae KBSP04; KBSP04)	MIC [2]	MIC [3]	MIC (S. aureus Mu50 NR1-1)	MIC (E. faecalis NCTC12201; read-out: MIC)	MIC (E. faecium RPR10; [8])	MIC (S. aureus Mu50)	also measured
O=C(O)c1cn(C2CC2)c2cc(N3CCNCC3)c(F)cc2c1=O [CIP, ciprofloxacin]	4 µg/mL (≈ 12.1 µM)	2 µg/mL (≈ 6.04 µM)	4 µg/mL (≈ 12.1 µM)	> 32 µg/mL	0.5 µg/mL (≈ 1.51 µM)	0.5 µg/mL (≈ 1.51 µM)	> 32 µg/mL												MIC (S. pneumoniae BCLSP16; S. pneumoniae BCLSP16, PSSP, ParC 79Tyr, GyrA 81Phe, read-out: MIC): > 32 µg/mL
O=c1cc(CO)c2cc(F)c(-c3ccc(O)cc3)cc2n1C1CC1 [J-131CP, 1-cyclopropyl-6-fluoro-4-(hydroxymethyl)-7-(4-hydroxyphenyl)-1,2-dihydroquinolin-2-one]		0.5 µg/mL (≈ 1.54 µM)		4 µg/mL (≈ 12.3 µM)			4 µg/mL (≈ 12.3 µM)	0.25 µg/mL (≈ 0.768 µM)	≦0.25	≤ 0.06 µg/mL	4 µg/mL (≈ 12.3 µM)	4 µg/mL (≈ 12.3 µM)	0.25 µg/mL (≈ 0.768 µM)	0.25 µg/mL (≈ 0.768 µM)	0.25 µg/mL (≈ 0.768 µM)				MIC (E. faecalis NCTC12201): 0.5 µg/mL (≈ 1.54 µM); MIC (E. faecalis NCTC12203): 2 µg/mL (≈ 6.15 µM); MIC (E. faecium NCTC12204): 8 µg/mL (≈ 24.6 µM); MIC (E. faecium RPR10; RPR10): 4 µg/mL (≈ 12.3 µM); MIC (S. pneumoniae KBSP11; PRSP): 2 µg/mL (≈ 6.15 µM)
C[C@H]1COc2c(N3CCN(C)CC3)c(F)cc3c(=O)c(C(=O)O)cn1c23 [LVX, levofloxacin]	2 µg/mL (≈ 5.53 µM)	2 µg/mL (≈ 5.53 µM)	2 µg/mL (≈ 5.53 µM)	64 µg/mL (≈ 177 µM)	2 µg/mL (≈ 5.53 µM)	1 µg/mL (≈ 2.77 µM)	32 µg/mL (≈ 88.6 µM)	≤ 0.06 µg/mL	≧128	8 to 128 µg/mL (≈ 22.1 to 354 µM)	32 µg/mL (≈ 88.6 µM)		1 µg/mL (≈ 2.77 µM)	0.5 µg/mL (≈ 1.38 µM)	1 µg/mL (≈ 2.77 µM)	1 µg/mL (≈ 2.77 µM)	1 µg/mL (≈ 2.77 µM)	8 µg/mL (≈ 22.1 µM)	
CCn1cc(C(=O)O)c(=O)c2cc(F)c(N3CCNCC3)cc21 [NOR, norfloxacin]	4 µg/mL (≈ 12.5 µM)	16 µg/mL (≈ 50.1 µM)	4 µg/mL (≈ 12.5 µM)	128 µg/mL (≈ 401 µM)	4 µg/mL (≈ 12.5 µM)	4 µg/mL (≈ 12.5 µM)	64 µg/mL (≈ 200 µM)	0.25 µg/mL (≈ 0.783 µM)	512		> 128 µg/mL		16 µg/mL (≈ 50.1 µM)	16 µg/mL (≈ 50.1 µM)	16 µg/mL (≈ 50.1 µM)	2 µg/mL (≈ 6.26 µM)	2 µg/mL (≈ 6.26 µM)		
CC1COc2c(N3CCN(C)CC3)c(F)cc3c(=O)c(C(=O)O)cn1c23 (stereo not drawn) [OFX, ofloxacin]	4 µg/mL (≈ 11.1 µM)	4 µg/mL (≈ 11.1 µM)	4 µg/mL (≈ 11.1 µM)	8 µg/mL (≈ 22.1 µM)	0.5 µg/mL (≈ 1.38 µM)	0.5 µg/mL (≈ 1.38 µM)	32 µg/mL (≈ 88.6 µM)	0.125 µg/mL (≈ 0.346 µM)	128	8 to 128 µg/mL (≈ 22.1 to 354 µM)	16 µg/mL (≈ 44.3 µM)		1 µg/mL (≈ 2.77 µM)	1 µg/mL (≈ 2.77 µM)	2 µg/mL (≈ 5.53 µM)	2 µg/mL (≈ 5.53 µM)	2 µg/mL (≈ 5.53 µM)	16 µg/mL (≈ 44.3 µM)	
C[C@@H]1CN(c2c(F)c(N)c3c(=O)c(C(=O)O)cn(C4CC4)c3c2F)C[C@H](C)N1 [SPX, sparfloxacin]	1 µg/mL (≈ 2.55 µM)	0.5 µg/mL (≈ 1.27 µM)	1 µg/mL (≈ 2.55 µM)	> 32 µg/mL		0.25 µg/mL (≈ 0.637 µM)	> 32 µg/mL	≤ 0.06 µg/mL	≧256	8 to 128 µg/mL (≈ 20.4 to 326 µM)	16 µg/mL (≈ 40.8 µM)	0.125 µg/mL (≈ 0.319 µM)	< 0.06 µg/mL	8 µg/mL (≈ 20.4 µM)	0.25 µg/mL (≈ 0.637 µM)	0.5 µg/mL (≈ 1.27 µM)	0.13 µg/mL (≈ 0.331 µM)	16 µg/mL (≈ 40.8 µM)	
NC1CCN(c2nc3c(cc2F)c(=O)c(C(=O)O)cn3-c2ccc(F)cc2F)C1 (stereo not drawn) [TSX, tosufloxacin]	4 µg/mL (≈ 9.89 µM)	2 µg/mL (≈ 4.95 µM)	4 µg/mL (≈ 9.89 µM)	8 µg/mL (≈ 19.8 µM)			16 µg/mL (≈ 39.6 µM)	≤ 0.06 µg/mL	≧2048		8 µg/mL (≈ 19.8 µM)	0.125 µg/mL (≈ 0.309 µM)	0.25 µg/mL (≈ 0.618 µM)	2 µg/mL (≈ 4.95 µM)	0.5 µg/mL (≈ 1.24 µM)	0.25 µg/mL (≈ 0.618 µM)	4 µg/mL (≈ 9.89 µM)		MIC (S. pneumoniae KBSP11; PRSP): 0.125 µg/mL (≈ 0.309 µM)
